Legend:
[1] = system: NSCLC CDX model HCC827-ER1 (EGFR exon 19 deletion E746-A750); details: mouse, in vivo
Experimental: Body weights were measured twice per week after randomization.

[2] = system: cMET than EGFR; details: Moores et al. (2016); cited from earlier work

Compound: C=CC(=O)Nc1cc(Nc2nccc(-c3cn(C)c4ccccc34)n2)c(OC)cc1N(C)CCN(C)C [Osimertinib]
- absolute body weight [1]: lower compared to Groups 1 and 2

Compound: JNJ-61186372: bispecific cMET×EGFR antibody produced by controlled Fab-arm exchange (Moores et al 2016)
- affinity imbalance, greater affinity for cMET than EGFR [2]: approximately 40 ×
